What was measured:
[1] = tested on: human hepatocellular cancer cell line JHH7 xenograft; test: JHH7 xenograft model of hepatocellular carcinoma, antitumor activity; format: in vivo, mice; details: PO QD 8 days
Protocol: The cell line used, JHH7, was sourced from Japanese Collection of Research Bioresources Cell Bank (JCRB), verified free of mycobacterium contamination and verified for identity by short tandem repeat analysis of 9 markers.
JHH7 cells were maintained in William's E Medium (Thermo Fisher Scientific, 12551-032) with 10% fetal bovine serum. Cells were maintained prior to and during experiments at 37° C. 5% CO2, and at 95% relative humidity. Cell passage number was limited to between 12 and 20.
The human hepatocellular cancer cell line JHH7 was cultured in William's E Medium (Thermo Fisher Scientific, 12551-032) containing 10% fetal bovine serum at 37° C. in a 5% CO2 atmosphere and kept in exponential growth phase. For harvesting, the cells were washed with phosphate buffered saline, incubated with 0.25% trypsin-EDTA, and suspended in a 1:1 mixture of William's E Medium and Matrigel (Corning) at a final concentration of 5×10^7 cells/mL. To generate xenografts, 0.1-mL of the inoculum was injected subcutaneously into the right flank region of NU/NU immuno compromised 6-8 week old female mice, giving a final concentration of 5×10^6 cells/mouse. When the mean tumor volume (TV) reached approximately 170 mm^3 (10 days after implantation), 144 mice were selected based on their TVs, and were sorted into 18 treatment groups with 8 animals per group. Per os (PO) treatment with Compound 1 (300 and 500 mg/kg) alone or in combination with vehicle (control) or palbociclib (50 and 100 mg/kg) or ribociclib (75 and 150 mg/kg) administered once daily (QD) continued for 8 days. The administration volume (0.1 mL/10 g body weight) was calculated from the individual mouse body weight (BW) before administration. Body weights were measured daily and tumor measurements were performed twice weekly.
(§1) where Day X is any day of measurement
(§2) The anti-tumor effects of the treatment, Partial (PR) and complete regression (CR), stable (SD) and progressive (PD) disease were defined by the Xenograft Model Response Criteria (see below). Mice with >20% body weight loss compared to their Day 1 body weight or bearing tumors with the longest diameter […] were immediately euthanized to prevent any pain or suffering in the animal as according to IACUC guidelines.
Data are expressed as the mean±SEM for Tumor Volume (TV). The differences in TV between groups were analyzed by two way ANOVA followed by Sidak post hoc test. Statistical analyses were performed using the GraphPad Prism version 6 (GraphPad Software, La Jolla, Calif.).
Progressive disease (PD): 3 consecutive measurements >120% of starting volume or 3 consecutive increasing measurements from best response, Stable disease (SD): 3 consecutive measurements >50% and <120% of starting volume, Partial regression (PR): 3 consecutive measurements <50% of starting volume, Complete regression (CR): 3 consecutive measurements <30 mm^3.

[2] = tested on: human primary hepatocellular carcinoma model LIX066; test: LIX066 patient derived xenograft model of hepatocellular carcinoma, antitumor activity; format: in vivo, mice; details: Example 3, oral daily 17 days
Protocol: The human primary hepatocellular carcinoma model LIX066 model from ChemPartner (shangpharma.com) were implanted into the female severe combined immunodeficiency (SCID) mice. When the tumors developed in mice, the mice were sacrificed and the tumors were resected and implanted into female nude mice for tumor preservation, histopathology diagnosis and in vivo efficacy study. Solid tumor tissues were depleted of necrotic components, cut into 10-15 mg pieces, and mixed. Three to five pieces were mixed with […] Matrigel and implanted into a flank of 6-8-week-old female NU/NU immune compromised mice weighing 18-20 g nude mice. 30 mice with average tumor volume of 160 mm^3 selected and randomized into 6 groups of 5 mice each. All of the primary human tumors utilized in this study had undergone 3-5 passages in vivo and the tumor histology of each was maintained over the serial transplantation process. Per os (PO) treatment with Compound 1 (300 and 500 mg/kg) alone or in combination with vehicle (control) or palbociclib (100 mg/kg) administered once daily (QD) continued for 17 days. The administration volume (0.1 mL/10 g body weight) was calculated from the individual mouse body weight (BW) before administration. Body weights were measured daily and tumor measurements were performed twice weekly.
as §1, §2
Data are expressed as the mean±SEM for Tumor Volume (TV). The differences in TV between groups were analyzed by two way ANOVA followed by Sidak post hoc test. Statistical analyses were performed using the GraphPad Prism version 6 (GraphPad Software, La Jolla, Calif.). […]

`CN(C)C(=O)c1cc2cnc(Nc3ccc(N4CCNCC4)cn3)nc2n1C1CCCC1` [Ribociclib, 7-Cyclopentyl-2-(5-piperazin-1-yl-pyridin-2-ylamino)-7H-pyrrolo[2,3-d]pyrimidine-6-carboxylic acid dimethylamide, reference compound] was tested, and the “Tumor Growth Inhibition % (TGI)” value ([1]; Example 1, ribociclib 75 mg/kg single agent, vs vehicle controls (not significant)) was 13% and the “Tumor Growth Inhibition % (TGI)” value ([1]; Example 1, ribociclib 150 mg/kg single agent, vs vehicle controls (P≤0.0001)) was 23%.
`C=CC(=O)Nc1cc(N2CCN(CC)CC2)ccc1Nc1cc(N(C)C(=O)Nc2c(Cl)c(OC)cc(OC)c2Cl)ncn1` [Compound 1, N-(2-((6-(3-(2,6-dichloro-3,5-dimethoxyphenyl)-1-methylureido)pyrimidin-4-yl)amino)-5-(4-ethylpiperazin-1-yl)phenyl)acrylamide] was tested, and the “Tumor Growth Inhibition % (TGI)” value ([1]; Example 1, Compound 1 300 mg/kg single agent, vs vehicle controls) was 14%, the “Tumor Growth Inhibition % (TGI)” value ([1]; Example 1, Compound 1 500 mg/kg single agent, vs vehicle controls) was 35% and the “Tumor Growth Inhibition % (TGI)” value ([1]; Example 2, Compound 1 300 mg/kg single agent, vs vehicle controls (P≤0.01)) was 12%. For the same compound, the “Tumor Growth Inhibition % (TGI)” value ([1]; Example 2, Compound 1 500 mg/kg single agent, vs vehicle controls (P≤0.0001)) was 32%, the “Tumor Growth Inhibition % (TGI)” value ([2]; Compound 1 300 mg/kg single agent, vs vehicle controls (P≤0.0001)) was 59% and the “Tumor Growth Inhibition % (TGI)” value ([2]; Compound 1 500 mg/kg single agent, vs vehicle controls (P≤0.0001)) was 70%.
`CC(=O)c1c(C)c2cnc(Nc3ccc(N4CCNCC4)cn3)nc2n(C2CCCC2)c1=O` [Palbociclib, 6-acetyl-8-cyclopentyl-5-methyl-2-{[5-(piperazin-1-yl)pyridin-2-yl]amino}pyrido[2,3-d]pyrimidin-7(8H)-one, reference compound] was tested, and the “Tumor Growth Inhibition % (TGI)” value ([1]; Example 2, palbociclib 50 mg/kg single agent, vs vehicle controls (not significant)) was 11%, the “Tumor Growth Inhibition % (TGI)” value ([1]; Example 2, palbociclib 100 mg/kg single agent, vs vehicle controls (P≤0.05)) was 26% and the “Tumor Growth Inhibition % (TGI)” value ([2]; palbociclib 100 mg/kg single agent, vs vehicle controls (P≤0.001)) was 62%.

From patent US20190175598A1, “COMBINATION THERAPIES FOR THE TREATMENT OF HEPATOCELLULAR CARCINOMA” (Eisai R&D Management Co., Ltd., priority 2016, published 2019)
